Patent US11053204B2, “Pyrimidinyloxy benzene derivatives as herbicides” (FMC Corporation, priority 2015, dated 2021)

Columns and labels:
Assay type in all cases: in vivo
[1] = system: oat, wild (wild oat Avena fatua); assay: Test C postemergence, plant response rating; conditions: Avena fatua, post-emergence
In short: (§1)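 Both timings shared one formulation, a non-phytotoxic solvent mixture with surfactant, and a greenhouse period of 13 to 15 d. Preemergence used seeded loam/sand or silt loam soil, postemergence used 2 to 18 cm plants; visual ratings ran from 0 (no effect) to 100 (complete control).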

[2] = system: soybean (Glycine max); assay: Test C postemergence, plant response rating; conditions: Glycine max, post-emergence
In short: as §1

[3] = system: foxtail, giant (giant foxtail, Setaria faberii); assay: Test C postemergence, plant response rating; conditions: Setaria faberi, post-emergence
In short: as §1

[4] = system: blackgrass (Alopecurus myosuroides); assay: Test C postemergence, plant response rating; conditions: Alopecurus myosuroides, post-emergence
In short: as §1

[5] = system: nutsedge, yellow (yellow nutsedge, Cyperus esculentus); assay: Test C postemergence, plant response rating; conditions: Cyperus, post-emergence
In short: as §1

[6] = system: barnyardgrass (Echinochloa crus-galli); assay: Test C postemergence, plant response rating; conditions: Echinochloa crus-galli, post-emergence
In short: as §1

[7] = system: lambsquarters (Chenopodium album); assay: Test C postemergence, plant response rating; conditions: Chenopodium album, post-emergence
In short: as §1

[8] = system: corn (Zea mays); assay: Test C postemergence, plant response rating; conditions: Zea mays, post-emergence
In short: as §1

[9] = system: oilseed rape (Brassica napus); assay: Test C postemergence, plant response rating; conditions: Brassica napus, post-emergence
In short: as §1

[10] = system: wheat (winter wheat, Triticum aestivum); assay: Test C postemergence, plant response rating; conditions: Triticum aestivum, post-emergence
In short: as §1

[11] = system: chickweed (common chickweed, Stellaria media); assay: Test C postemergence, plant response rating; conditions: Stellaria media, post-emergence
In short: as §1

[12] = system: ryegrass, Italian (Italian ryegrass, Lolium multiflorum); assay: Test C postemergence, plant response rating; conditions: Lolium multiflorum, post-emergence
In short: as §1

[13] = system: kochia (Kochia scoparia); assay: Test C postemergence, plant response rating; conditions: Bassia scoparia, post-emergence
In short: as §1

[14] = system: morningglory (Ipomoea coccinea); assay: Test C postemergence, plant response rating; conditions: Ipomoea, post-emergence
In short: as §1

[15] = system: crabgrass, large (large crabgrass, Digitaria sanguinalis); assay: Test C postemergence, plant response rating; conditions: Digitaria sanguinalis, post-emergence
In short: as §1

[16] = system: barnyardgrass (Echinochloa crus-galli); assay: Test A preemergence, visual injury rating; conditions: Echinochloa crus-galli, pre-emergence, 240 h, 0 to 100 scale (0 no effect, 100 complete control), read-out: Barnyardgrass plant response rating
In short: (§2)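 Injury scores run from 0, no effect, to 100, complete control, judged by eye against untreated plants roughly 10 days after treatment. Chemicals carried a surfactant in a non-phytotoxic solvent and went onto loam–sand soil preemergence or onto one- to two-leaf seedlings postemergence.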

[17] = system: kochia (Kochia scoparia); assay: Test A preemergence, visual injury rating; conditions: Bassia scoparia, pre-emergence, 240 h, 0 to 100 scale (0 no effect, 100 complete control), read-out: Kochia plant response rating
In short: as §2

[18] = 62 g ai/ha, scale 0 to 100 (0 no effect, 100 complete control)
[19] = 125 g ai/ha, scale 0 to 100 (0 no effect, 100 complete control)

O=C(OCCC(F)(F)F)c1c(Cl)cccc1Oc1ncc(Cl)cn1 [Compound 15, 3,3,3-trifluoropropyl 2-chloro-6-[(5-chloro-2-pyrimidinyl)oxy]benzoate]
30%: pest or weed control at 31 g/ha ([3]; 31 g ai/ha, scale 0 to 100) | pest or weed control at 16 g/ha ([15]; 16 g ai/ha, scale 0 to 100)
15%: pest or weed control at 31 g/ha ([6]; 31 g ai/ha, scale 0 to 100) | Corn plant response rating (crop injury, 0 = no effect, 100 = complete kill) at 16 g/ha ([8]; 16 g ai/ha, scale 0 to 100)
80%: plant injury at 62 g/ha [2, 18] | pest or weed control at 31 g/ha ([11]; 31 g ai/ha, scale 0 to 100)
95%: pest or weed control at 125 g/ha [7, 19] | plant injury at 31 g/ha ([9]; 31 g ai/ha, scale 0 to 100) | pest or weed control at 31 g/ha ([13]; 31 g ai/ha, scale 0 to 100) | pest or weed control at 62 g/ha [13, 18] | pest or weed control at 125 g/ha [13, 19]
20%: pest or weed control at 62 g/ha [3, 18] | pest or weed control at 125 g/ha [5, 19] | pest or weed control at 16 g/ha ([6]; 16 g ai/ha, scale 0 to 100) | pest or weed control at 62 g/ha [6, 18] | pest or weed control at 125 g/ha [6, 19] | plant injury at 62 g/ha [8, 18] | plant injury at 125 g/ha [8, 19] | pest or weed control at 31 g/ha ([15]; 31 g ai/ha, scale 0 to 100)
65%: pest or weed control at 16 g/ha ([14]; 16 g ai/ha, scale 0 to 100)
5%: pest or weed control at 16 g/ha ([1]; 16 g ai/ha, scale 0 to 100) | pest or weed control at 31 g/ha ([1]; 31 g ai/ha, scale 0 to 100) | pest or weed control at 62 g/ha [1, 18] | pest or weed control at 31 g/ha ([4]; 31 g ai/ha, scale 0 to 100) | pest or weed control at 62 g/ha [5, 18] | pest or weed control at 31 g/ha ([12]; 31 g ai/ha, scale 0 to 100) | pest or weed control at 125 g/ha [12, 19]
70%: pest or weed control at 16 g/ha ([7]; 16 g ai/ha, scale 0 to 100)
0%: pest or weed control at 16 g/ha ([4]; 16 g ai/ha, scale 0 to 100) | pest or weed control at 16 g/ha ([5]; 16 g ai/ha, scale 0 to 100) | pest or weed control at 31 g/ha ([5]; 31 g ai/ha, scale 0 to 100) | plant injury at 125 g/ha [9, 19] | plant injury at 16 g/ha ([10]; 16 g ai/ha, scale 0 to 100) | plant injury at 31 g/ha ([10]; 31 g ai/ha, scale 0 to 100) | plant injury at 62 g/ha ([10]; 62 g ai/ha, scale 0 to 100 (0 no effect, 100 complete control), read-out: Wheat plant response rating) | plant injury at 125 g/ha [10, 19] | pest or weed control at 16 g/ha ([12]; 16 g ai/ha, scale 0 to 100)
25%: pest or weed control at 16 g/ha ([3]; 16 g ai/ha, scale 0 to 100) | pest or weed control at 62 g/ha [15, 18] | pest or weed control at 125 g/ha [15, 19]
45%: plant injury at 16 g/ha ([2]; 16 g ai/ha, scale 0 to 100) | plant injury at 31 g/ha ([2]; 31 g ai/ha, scale 0 to 100) | plant injury at 16 g/ha ([9]; 16 g ai/ha, scale 0 to 100)
35%: pest or weed control at 125 g/ha [3, 19] | pest or weed control at 16 g/ha ([11]; 16 g ai/ha, scale 0 to 100)
10%: pest or weed control at 125 g/ha [1, 19] | pest or weed control at 62 g/ha [4, 18] | pest or weed control at 125 g/ha [4, 19] | Corn plant response rating (crop injury, 0 = no effect, 100 = complete kill) at 31 g/ha ([8]; 31 g ai/ha, scale 0 to 100) | pest or weed control at 62 g/ha [12, 18]
90%: plant injury at 125 g/ha [2, 19] | pest or weed control at 62 g/ha [11, 18] | pest or weed control at 125 g/ha [11, 19] | pest or weed control at 16 g/ha ([13]; 16 g ai/ha, scale 0 to 100) | pest or weed control at 125 g/ha [14, 19]
75%: pest or weed control at 31 g/ha ([7]; 31 g ai/ha, scale 0 to 100) | pest or weed control at 62 g/ha [7, 18] | pest or weed control at 31 g/ha ([14]; 31 g ai/ha, scale 0 to 100)
100%: plant injury at 62 g/ha [9, 18] | pest or weed control at 125 g/ha ([16]; 125 g ai/ha) | pest or weed control at 500 g/ha ([16]; 500 g ai/ha) | pest or weed control at 125 g/ha ([17]; 125 g ai/ha) | pest or weed control at 500 g/ha ([17]; 500 g ai/ha)
85%: pest or weed control at 62 g/ha [14, 18]
